Results as given in patent US7416741B2, “Copper lowering treatment of inflammatory and fibrotic diseases” (The Regents of the University of Michigan, priority 2002, dated 2008).

Experiments:
serum ceruloplasmin (Cp) = assay: Copper status by serum ceruloplasmin (oxidase activity) in mice; format: in vivo, mouse; conditions: for Ceruloplasmin Values: Ex 1 Exp 2
Text: Copper status. In the presence of TM therapy, copper status is difficult to assess by measuring serum copper directly, since a slowly turning over tripartite complex of TM, copper, and albumin accumulates, causing the serum copper to be elevated even though availability of copper is decreasing. However, the inventors have previously determined that serum ceruloplasmin (Cp) is a good surrogate marker of copper status (G J Brewer et al., Clin. Cancer, 6: 1-10 [2000]), because the liver secretes this copper containing protein into the blood at a rate dependent upon copper availability. Copper status was followed by assaying serum ceruloplasmin (Cp), by measuring its oxidase activity (K H Schosinsky et al., Clin. Chem., 20(12)1556-1563 [1974]). Blood was obtained from the tail vein of the mice. To avoid excessive bleeding, only one mouse from each group was bled at any time point during the study, and mice were rotated so that different mice were bled at the different time points. A Cp assay in all mice was done at time of sacrifice.
Copper status. In the presence of TM therapy, copper status cannot be assessed by direct measurement of serum copper because of the accumulation of a tripartite complex of TM, copper, and albumin that turns over slowly, causing the serum copper to be increased even though availability of copper is decreasing. […] Copper status was monitored by assaying serum ceruloplasmin on the basis of its oxidase activity in blood from the tail vein. To avoid excessive bleeding, one mouse from each group was bled at each time point; mice were rotated so that different mice were bled. A ceruloplasmin assay was conducted in each mouse when it was killed.

Lysyl oxidase = Lysyl oxidase in the lungs, bleomycin model; format: in vivo, mouse; conditions: Ex 2 Exp 1; TM treated vs non-TM treated animals
[1] = test system: carbon tetrachloride (CT) mouse model; assay: Serum ALT in the carbon tetrachloride (CT) mouse model of liver damage; format: in vivo; conditions: Ex 6; TM from week 5; sacrifice week 12; p<0.0008; protection only partial
Procedure: (§1) The carbon tetrachloride (CT) mouse model produces much more liver fibrosis (cirrhosis) than the Con A model. In this model carbon tetrachloride is injected intraperitoneally twice weekly, and after 12 weeks, a well-established cirrhosis should be present. This can be evaluated histologically, and can be quantitated by measuring liver hydroxyproline, a major amino acid in collagen. The TM was started in TM treated animals at the beginning of week 5 and the animals were sacrificed at week 12.
There were 4 animals in the CT group, 4 in the CT/TM group, 2 in the olive oil/TM group, and 1 in the TM group. Since there were so few animals in the last two groups, and since their data were generally similar, they were combined.

[2] = test system: carbon tetrachloride (CT) mouse model; assay: Liver hydroxyproline and histology in the CT mouse model; format: in vivo; conditions: Ex 6
Procedure: as §1

cancer patients [3] = assay: TM therapy in cancer patients; format: in vivo, human; conditions: 180 mg/day induction dose
Procedure: TM has also shown positive effects in spontaneous canine cancers. A clinical phase ½ study of a variety of metastatic and advanced cancers has shown positive results, with an average of 11 months freedom from progression in evaluable patients, and long term stabilization in three patients (G J Brewer et al., Clin. Cancer Res., 6:1-10 [2000]). A number of phase 2 studies of specific cancers are under way.
The current cancer therapy induction dose for TM is 40 mg 3×daily with meals and 60 mg at bedtime separated from food (180 mg/day). At this dose, it takes 15-25 days to induce cancer patients into the Cp target range. This same induction dose is used for IPF patients. All patients remain on their induction doses until they reach target Cp levels, then are switched to maintenance therapy.

cancer patients [4] = conditions: clinical phase ½ study of metastatic and advanced cancers; cited from earlier work
sheep = conditions: cited from earlier work
[5] = sheep; intravenous 99Mo labeled TM; cited from earlier work

SMILES: [SH-].[SH-].[S]=[Mo]=[S] [TM, tetrathiomolybdate]
- Ceruloplasmin (serum ceruloplasmin (Cp); Ex 1 Exp 1, Bleomycin/TM group, sacrifice day 21): 13.9 ± 3.3 I.U
- mean ceruloplasmin relative to saline controls (serum ceruloplasmin (Cp); Ex 1 Exp 1, TM alone (group 4)): about 80%
- Ceruloplasmin (serum ceruloplasmin (Cp); Ex 1 Exp 1, TM only group, sacrifice day 21): 18.1 ± 3.4 I.U
- mean ceruloplasmin level relative to bleomycin animals (serum ceruloplasmin (Cp); Ex 1 Exp 1, bleomycin/TM mice (group 3)): about 55%
- Ceruloplasmin Values (serum ceruloplasmin (Cp); TM 0.3 mg/day/mouse, day 14, single mouse): 23.6 International Units
- Ceruloplasmin Values (serum ceruloplasmin (Cp); TM 0.3 mg/day/mouse, day 21 (sacrifice), mean and standard error of four mice): 5.4 ± 2.7 International Units
- Ceruloplasmin Values (serum ceruloplasmin (Cp); TM 0.5 mg/day/mouse, day 8, single mouse): 14.4 International Units
- Ceruloplasmin Values (serum ceruloplasmin (Cp); TM 0.5 mg/day/mouse, day 14, single mouse): 10.6 International Units
- Ceruloplasmin Values (serum ceruloplasmin (Cp); TM 0.5 mg/day/mouse, day 21, mean and SE of four mice): 4.5 ± 2.7 International Units
- Ceruloplasmin Values (serum ceruloplasmin (Cp); TM 0.7 mg/day/mouse, day 8, single mouse): 12.6 International Units
- Ceruloplasmin Values (serum ceruloplasmin (Cp); TM 0.7 mg/day/mouse, day 14, single mouse): 15.5 International Units
- Ceruloplasmin Values (serum ceruloplasmin (Cp); TM 0.7 mg/day/mouse, day 21, mean and SE of four mice): 4.7 ± 2.2 International Units
- Ceruloplasmin Values (serum ceruloplasmin (Cp); TM 0.9 mg/day/mouse, day 8, single mouse): 0.6 International Units
- Ceruloplasmin Values (serum ceruloplasmin (Cp); TM 0.9 mg/day/mouse, day 14, single mouse): 3.7 International Units
- Ceruloplasmin Values (serum ceruloplasmin (Cp); TM 0.9 mg/day/mouse, day 21, mean and SE of four mice): 1.8 ± 0.7 International Units
- Ceruloplasmin Values (serum ceruloplasmin (Cp); TM maintenance 0.3 mg/day/mouse, day 8, single mouse): 20.3 International Units
- mean Cp levels in TM treated groups relative to non-TM treated groups (serum ceruloplasmin (Cp); Ex 2 Exp 1, TM 1.2 mg/day 4 days before bleomycin then 0.9 mg/day, sacrifice day 7): approximately half
- mean Cp level of bleomycin/TM group as % of the bleomycin group mean (serum ceruloplasmin (Cp); Ex 2 Exp 2, TM started 5 days after bleomycin, sacrifice day 21): 38%
- mean Cp of TM control group as % of the saline control group mean (serum ceruloplasmin (Cp); Ex 2 Exp 2, sacrifice day 21): 50%
- serum Cp levels relative to baseline levels (serum ceruloplasmin (Cp); daily gavage of 0.7 mg TM/mouse): 25-50%
- lysyl oxidase activity in the lungs (Lysyl oxidase): not inhibited
- serum ALT, CT/TM group mean vs CT group [1]: significantly lower
- liver histology ([2]; CT/TM treated liver): essentially normal
- liver fibrosis as evaluated by hydroxyproline ([2]; CT/TM, after week 12): blocks all fibrosis
- time to induce patients into the Cp target range (cancer patients [3]): 15 to 25 days
- average freedom from progression in evaluable patients (cancer patients [4]): 11 months
- tolerability of intravenous TM (sheep; copper loaded sheep, 50 or 100 mg 2×weekly for up to 11 weeks): tolerated up to 22 injections of TM without clinical problems
- adverse side effects (sheep; prophylactic use in commercial sheep flocks, over 400 animals): no adverse side effects
- excreted in feces [5]: 5%
- excreted in urine [5]: over 90%
- half-time of slow disappearance from plasma [5]: about 40 h
